Reference: PubChem BioAssay AID330 (DTP/NCI, 2004)
Inconclusive results and toxic doses are left out. How the source made its calls: active means survival T/C of 150% or more; inactive means T/C below 125% in these data.

Tested on: P388 leukemia ip, CD2F1 mice, survival T/C
Assay: NCI In Vivo Anticancer Drug Screen. Data for tumor model P388 Leukemia (intraperitoneal) in CD2F1 (CDF1) mice
Conditions: endpoint: median survival time, higher = longer survival
Summary of the method: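 Mice carrying the transplanted tumor received test compound or vehicle. Survival was recorded in each group, and the value is the treated-group measurement divided by that of the vehicle-treated control group.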

[1] = dose: 100.0 mg/kg/injection, schedule: Q04DX003 (ip), vehicle: Klucel (hydroxypropylcellulose) (HPC)
[2] = dose: 200.0 mg/kg/injection, schedule: Q04DX003 (ip), vehicle: Klucel (hydroxypropylcellulose) (HPC)
[3] = dose: 50.0 mg/kg/injection, schedule: Q01DX005 (ip), vehicle: Klucel (hydroxypropylcellulose) (HPC)
[4] = dose: 100.0 mg/kg/injection, schedule: Q01DX005 (ip), vehicle: Klucel (hydroxypropylcellulose) (HPC)
[5] = dose: 200.0 mg/kg/injection, schedule: Q01DX005 (ip), vehicle: Klucel (hydroxypropylcellulose) (HPC)

Measured: T/C

CCCCCCCCCCCCNC(=O)c1ccc[n+](Cc2ccc(Cl)c(Cl)c2)c1
inactive: dose: 3.13 mg/kg/injection, schedule: Q01DX009 (ip), vehicle: saline with Tween-80 100 % of control | dose: 6.25 mg/kg/injection, schedule: Q01DX009 (ip), vehicle: saline with Tween-80 95 % of control | dose: 12.5 mg/kg/injection, schedule: Q01DX009 (ip), vehicle: saline with Tween-80 100 % of control

CNc1nc(OC)nc2c1cnn2C1CCCCO1 (stereo not given)
inactive: dose: 100.0 mg/kg/injection, schedule: Q04DX002 (ip), vehicle: saline with Tween-80 97 % of control | dose: 200.0 mg/kg/injection, schedule: Q04DX002 (ip), vehicle: saline with Tween-80 100 % of control | dose: 400.0 mg/kg/injection, schedule: Q04DX002 (ip), vehicle: saline with Tween-80 94 % of control

CN(C)CC1CCC1N1c2ccccc2Sc2ccc(Cl)cc21 (stereo not given)
inactive: dose: 50.0 mg/kg/injection, schedule: Q04DX003 (ip), vehicle: Klucel (hydroxypropylcellulose) (HPC) 105 % of control | [1] 100 % of control | [2] 98 % of control

CCCCCCCC/C=C\CCCCCCCC(=O)OC/C=C/COC(=O)c1ccccc1
inactive: [1] 106 % of control | [2] 99 % of control | dose: 400.0 mg/kg/injection, schedule: Q04DX003 (ip), vehicle: Klucel (hydroxypropylcellulose) (HPC) 106 % of control

O=c1c(O)c(-c2ccc(O)c(O)c2)oc2cc(O)cc(O)c12
inactive: dose: 12.5 mg/kg/injection, schedule: Q03HX008 (ip), vehicle: saline with Tween-80 95 % of control | dose: 25.0 mg/kg/injection, schedule: Q03HX008 (ip), vehicle: saline with Tween-80 91 % of control | dose: 40.0 mg/kg/injection, schedule: Q01DX009 (ip), vehicle: saline with Tween-80 100 % of control | dose: 50.0 mg/kg/injection, schedule: Q03HX008 (ip), vehicle: saline with Tween-80 93 % of control | dose: 80.0 mg/kg/injection, schedule: Q01DX009 (ip), vehicle: saline with Tween-80 100 % of control | dose: 100.0 mg/kg/injection, schedule: Q01DX001 (ip), vehicle: saline with Tween-80 108 % of control | dose: 100.0 mg/kg/injection, schedule: Q03HX008 (ip), vehicle: saline with Tween-80 99 % of control | dose: 100.0 mg/kg/injection, schedule: Q04DX003 (ip), vehicle: saline with Tween-80 95 % of control | dose: 200.0 mg/kg/injection, schedule: Q01DX001 (ip), vehicle: saline with Tween-80 98 % of control | dose: 200.0 mg/kg/injection, schedule: Q03HX008 (ip), vehicle: saline with Tween-80 103 % of control | dose: 200.0 mg/kg/injection, schedule: Q04DX003 (ip), vehicle: saline with Tween-80 109 % of control | dose: 400.0 mg/kg/injection, schedule: Q01DX001 (ip), vehicle: saline with Tween-80 104 % of control | dose: 400.0 mg/kg/injection, schedule: Q04DX003 (ip), vehicle: saline with Tween-80 104 % of control | dose: 800.0 mg/kg/injection, schedule: Q01DX001 (ip), vehicle: saline with Tween-80 108 % of control

CC1=CC(=O)C2(OC3OC(C)C(O)C(O)C3O)C=COC(OC3OC(CO)C(O)C(O)C3O)C12 (stereo not given)
inactive: dose: 12.5 mg/kg/injection, schedule: Q01DX005 (ip), vehicle: Klucel (hydroxypropylcellulose) (HPC) 98 % of control | dose: 25.0 mg/kg/injection, schedule: Q01DX005 (ip), vehicle: Klucel (hydroxypropylcellulose) (HPC) 95 % of control | [3] 95 % of control | [4] 95 % of control | [5] 95 % of control

S=C(Nc1ccccc1)Nc1ncn[nH]1
inactive: [3] 101 % of control | [4] 100 % of control | [5] 99 % of control

CCOP(=O)(OCC)SCSC(C)C
inactive: dose: 0.04 mg/kg/injection, schedule: Q01DX009 (ip), vehicle: Klucel (hydroxypropylcellulose) (HPC) 102 % of control | dose: 0.09 mg/kg/injection, schedule: Q01DX009 (ip), vehicle: Klucel (hydroxypropylcellulose) (HPC) 102 % of control | dose: 0.19 mg/kg/injection, schedule: Q01DX009 (ip), vehicle: Klucel (hydroxypropylcellulose) (HPC) 108 % of control

O=C(O)c1cc2ccccc2c2c1C(=O)c1ccccc1-2
inactive: dose: 50.0 mg/kg/injection, schedule: Q01DX009 (ip), vehicle: saline with Tween-80 90 % of control | dose: 100.0 mg/kg/injection, schedule: Q01DX009 (ip), vehicle: saline with Tween-80 95 % of control | dose: 200.0 mg/kg/injection, schedule: Q01DX009 (ip), vehicle: saline with Tween-80 91 % of control
